The text below walks through data of BindingDB's records for doi:10.1021/acs.jmedchem.7b01492 (Peking University, 2019).

This test concerns the target Neuronal acetylcholine receptor subunit alpha-7 (Homo sapiens, UniProt P36544). Description: Positive allosteric modulation of human alpha7 nAChR expressed in Xenopus laevis oocytes assessed as increase in acetylcholine-induced channel current by measuring acetylcholine EC50 at 10 uM at -90 mV holding potential preincubated for 2 mins followed by co-application with acetylcholine for 10 secs by two-electrode voltage clamp method (Rvb = 256.4 +/- 20.1 uM). (In two-electrode clamp one electrode senses voltage and the other passes current.)

Sequence of Neuronal acetylcholine receptor subunit alpha-7 (P36544 whole entry): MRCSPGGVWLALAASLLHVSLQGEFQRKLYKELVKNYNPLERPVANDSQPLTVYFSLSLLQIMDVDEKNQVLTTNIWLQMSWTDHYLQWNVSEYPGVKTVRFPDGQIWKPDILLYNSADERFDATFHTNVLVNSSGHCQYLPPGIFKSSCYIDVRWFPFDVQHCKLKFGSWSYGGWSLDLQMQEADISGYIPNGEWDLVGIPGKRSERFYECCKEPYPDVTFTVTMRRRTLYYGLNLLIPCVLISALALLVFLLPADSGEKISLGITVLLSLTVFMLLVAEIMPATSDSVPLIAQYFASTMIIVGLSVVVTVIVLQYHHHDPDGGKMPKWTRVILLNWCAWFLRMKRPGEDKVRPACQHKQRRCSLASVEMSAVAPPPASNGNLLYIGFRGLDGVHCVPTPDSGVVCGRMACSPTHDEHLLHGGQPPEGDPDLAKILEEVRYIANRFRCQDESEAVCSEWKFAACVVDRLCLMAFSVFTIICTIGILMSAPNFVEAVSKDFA

By EC50 is commonly meant the concentration giving half of the maximal effect. For `Cc1cccc(Cl)c1-n1cnc2nc(SCc3ccccc3)sc2c1=O`, the EC50 is 187 µM.
